Data published in patent publication US11109593B2, “Isoxazolin-5-one derivative and herbicide containing same as active ingredient” (HOKKO CHEMICAL INDUSTRY CO., LTD., priority 2017, dated 2021).

Assays:
Assay type in all cases: in vivo
[1] = tested on: broad leaf weeds (Lindernia pyxidaria and Monochoria vaginalis); test: Test Example 2: herbicidal effect test by treatment during growing period in paddy rice cultivation (seven days after seeding); details: 120 g/10a active ingredient, assessed 14 days after treatment, dry weight vs untreated area; for pest or weed control at 1200 g/ha: 336 h
Outline: (§1)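 Paddy soil in Wagner pots with compound fertilizer, puddled; 30 seeds per species sown at 0–1 cm, flooded ~3 cm, greenhouse. Seven days after seeding, water-diluted emulsions were dropped into the water at 120 g active ingredient per 10 ares. Duplicate pots; herbicidal rate from dry weight versus untreated, 14 days after treatment.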

Scirpus juncoides [2] = test: as above; details: 120 g/10a active ingredient, assessed 14 days after treatment, dry weight vs untreated area
Outline: as §1

Echinochloa crus-galli [3] = test: as above; details: 120 g/10a active ingredient, assessed 14 days after treatment, dry weight vs untreated area
Outline: as §1

Amaranthus viridis [4] = test: Test Example 4: herbicidal effect test by treatment of leave and stem in dry field farming (seven days after seeding); details: 120 g/10a active ingredient, emulsion sprayed seven days after seeding, evaluated 14 days after treatment
Outline: (§2)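 Weeds were seeded at 20 seeds per species into the top 1 cm of alluvial upland soil in pots, then sprayed 7 days after seeding with water-diluted emulsifiable concentrate at 100 L/10 a, giving 120 g active ingredient/10 a. Duplicate pots; herbicidal rate (%) was 14 days post-treatment, from dry weight versus untreated.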

southern crabgrass [5] = test: as above; details: 120 g/10a active ingredient, emulsion sprayed seven days after seeding, evaluated 14 days after treatment
Outline: as §2

Echinochloa crus-galli [6] = test: as above; details: 120 g/10a active ingredient, emulsion sprayed seven days after seeding, evaluated 14 days after treatment
Outline: as §2

Chenopodium album [7] = test: as above; details: 120 g/10a active ingredient, emulsion sprayed seven days after seeding, evaluated 14 days after treatment
Outline: as §2

[8] = tested on: broad leaf weeds (Lindernia pyxidaria and Monochoria vaginalis); test: Test Example 1: herbicidal effect test by treatment of rice paddy soil (immediately after seeding); details: 120 g/10a active ingredient, dry weight vs untreated area, 14 days after treatment; for pest or weed control at 1200 g/ha: 336 h
Outline: (§3)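 Application occurs immediately after seeding, with diluted emulsion added to paddy water (about 3 cm deep) over puddled, fertilized soil at 120 g active ingredient per 10 ares. Herbicidal rate is calculated from mean dry weight against untreated controls 14 days later.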

Scirpus juncoides [9] = test: as above; details: 120 g/10a active ingredient, dry weight vs untreated area, 14 days after treatment
Outline: as §3

Echinochloa crus-galli [10] = test: as above; details: 120 g/10a active ingredient, dry weight vs untreated area, 14 days after treatment
Outline: as §3

Amaranthus viridis [11] = test: Test Example 3: herbicidal effect test by treatment of dry field farming soil (one day after seeding); details: 120 g/10a active ingredient, evaluated 14 days after treatment
Outline: (§4)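 Pre-emergence soil treatment: alluvial dry-field soil, 20 seeds per species mixed into top 1 cm, emulsion diluted in water sprayed one day after seeding at 100 L per 10 ares (120 g active ingredient per 10 ares). Duplicate pots; herbicidal rate (%) from dry weight vs untreated at 14 days.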

southern crabgrass [12] = test: as above; details: 120 g/10a active ingredient, evaluated 14 days after treatment
Outline: as §4

Echinochloa crus-galli [13] = test: as above; details: 120 g/10a active ingredient, evaluated 14 days after treatment
Outline: as §4

Chenopodium album [14] = test: as above; details: 120 g/10a active ingredient, evaluated 14 days after treatment
Outline: as §4

Compound | Herbicidal rate (%) Lindernia pyxidaria ([1]; Lindernia pyxidaria) | Herbicidal rate (%) Monochoria vaginalis ([1]; Monochoria vaginalis) | Herbicidal rate (%) Scirpus juncoides (Scirpus juncoides [2]) | Herbicidal rate (%) Echinochloa crus-galli (Echinochloa crus-galli [3]) | herbicidal effect (herbicidal rate), Amaranthus viridis (Amaranthus viridis [4]) | herbicidal effect (herbicidal rate), southern crabgrass (southern crabgrass [5]) | herbicidal effect (herbicidal rate), Echinochloa crus-galli (Echinochloa crus-galli [6]) | herbicidal effect (herbicidal rate), Chenopodium album (Chenopodium album [7]) | Herbicidal rate (%) Lindernia pyxidaria ([8]; Lindernia pyxidaria) | Herbicidal rate (%) Monochoria vaginalis ([8]; Monochoria vaginalis) | Herbicidal rate (%) Scirpus juncoides (Scirpus juncoides [9]) | Herbicidal rate (%) Echinochloa crus-galli (Echinochloa crus-galli [10]) | herbicidal rate, Amaranthus viridis (Amaranthus viridis [11]) | herbicidal rate, southern crabgrass (southern crabgrass [12]) | herbicidal rate, Echinochloa crus-galli (Echinochloa crus-galli [13]) | herbicidal rate, Chenopodium album (Chenopodium album [14]) | other results
CCC(C)Cn1oc(=O)c(Cc2ccccc2N(C(=O)OCC(C)C)S(=O)(=O)C(F)(F)F)c1C (centres unmarked) [Compound 1-674] | 70% | 90% | 90% | 100% | 60% | 80% | 70% | 50% | 90% | 90% | 90% | 100% | 40% | 50% | 80% | 40% | –
CCOC(=O)N(c1ccccc1Cc1c(C)n(CC(C)(C)C)oc1=O)S(=O)(=O)C(F)(F)F [Compound 1-609] | 90% | 90% | 90% | 90% | 40% | 90% | 90% | 40% | 90% | 90% | 90% | 90% | 90% | 90% | 90% | 90% | –
Cc1c(Cc2ccccc2NS(=O)(=O)C(F)(F)F)c(=O)on1Cc1ccccc1 [Compound 1-180] | 80% | 90% | 90% | 70% | 0% | 50% | 50% | 40% | 90% | 90% | 90% | 90% | 30% | 80% | 80% | 30% | –
COC(=O)N(c1ccccc1Cc1c(C)n(CC(C)C)oc1=O)S(=O)(=O)C(F)(F)F [Compound 1-580] | 90% | 90% | 90% | 90% | 40% | 90% | 90% | 40% | 90% | 90% | 90% | 90% | 90% | 90% | 90% | 90% | –
Cc1c(Cc2ccccc2N(C(=O)C2CC2)S(=O)(=O)C(F)(F)F)c(=O)on1C(C)c1ccccc1 (centres unmarked) [Compound 1-416] | 90% | 90% | 90% | 90% | 40% | 90% | 90% | 40% | 90% | 90% | 90% | 90% | 90% | 90% | 90% | 90% | –
Cc1c(Cc2ccccc2N(S(=O)(=O)C(F)(F)F)S(=O)(=O)C(F)(F)F)c(=O)on1C(C)(C)C [Compound 1-963, N-[2-[(2-tert-butyl-3-methyl-5-oxo-isoxazol-4-yl)methyl]phenyl]-1,1,1-trifluoro-N-(trifluoromethylsulfonyl)methanesulfonamide] | – | – | – | – | – | – | – | – | – | – | – | – | – | – | – | – | pest or weed control at 1200 g/ha ([1]; Lindernia pyxidaria, read-out: herbicidal rate (%) Lindernia pyxidaria): 90%; pest or weed control at 1200 g/ha ([1]; Monochoria vaginalis, read-out: herbicidal rate (%) Monochoria vaginalis): 90%; pest or weed control at 1200 g/ha (Scirpus juncoides [2]; Schoenoplectiella juncoides, 336 h, read-out: herbicidal rate (%) Scirpus juncoides): 90%; pest or weed control at 1200 g/ha (Echinochloa crus-galli [3]; Echinochloa crus-galli, 336 h, read-out: herbicidal rate (%) Echinochloa crus-galli): 90%; pest or weed control at 1200 g/ha (Amaranthus viridis [4]; Amaranthus viridis, 336 h, read-out: herbicidal effect (herbicidal rate), Amaranthus viridis): 40%; pest or weed control at 1200 g/ha (southern crabgrass [5]; Digitaria ciliaris, 336 h, read-out: herbicidal effect (herbicidal rate), southern crabgrass): 90%; pest or weed control at 1200 g/ha (Echinochloa crus-galli [6]; Echinochloa crus-galli, 336 h, read-out: herbicidal effect (herbicidal rate), Echinochloa crus-galli): 90%; pest or weed control at 1200 g/ha (Chenopodium album [7]; Chenopodium album, 336 h, read-out: herbicidal effect (herbicidal rate), Chenopodium album): 40%; pest or weed control at 1200 g/ha ([8]; Monochoria vaginalis, read-out: Herbicidal rate (%) Monochoria vaginalis): 90%; pest or weed control at 1200 g/ha ([8]; in Lindernia, Lindernia pyxidaria, read-out: Herbicidal rate (%) Lindernia pyxidaria): 90%; pest or weed control at 1200 g/ha (Scirpus juncoides [9]; in Schoenoplectiella juncoides, 336 h, read-out: Herbicidal rate (%) Scirpus juncoides): 90%; pest or weed control at 1200 g/ha (Echinochloa crus-galli [10]; in Echinochloa crus-galli, 336 h, read-out: Herbicidal rate (%) Echinochloa crus-galli): 90%; pest or weed control at 1200 g/ha (Amaranthus viridis [11]; Amaranthus viridis, 336 h, read-out: herbicidal rate, Amaranthus viridis): 90%; pest or weed control at 1200 g/ha (southern crabgrass [12]; Digitaria ciliaris, 336 h, read-out: herbicidal rate, southern crabgrass): 90%; pest or weed control at 1200 g/ha (Echinochloa crus-galli [13]; Echinochloa crus-galli, 336 h, read-out: herbicidal rate, Echinochloa crus-galli): 90%; pest or weed control at 1200 g/ha (Chenopodium album [14]; Chenopodium album, 336 h, read-out: herbicidal rate, Chenopodium album): 90%
Cc1c(Cc2ccccc2NS(=O)(=O)C(F)(F)F)c(=O)on1C1CCc2ccccc21 (centres unmarked) [Compound 1-222] | 90% | 90% | 90% | 90% | 40% | 80% | 70% | 50% | 90% | 90% | 90% | 100% | 100% | 100% | 100% | 100% | –
COCC(C)n1oc(=O)c(Cc2ccccc2N(C(=O)OC(C)C)S(=O)(=O)C(F)(F)F)c1C (centres unmarked) [Compound 1-647] | 90% | 90% | 90% | 90% | 40% | 90% | 90% | 40% | 90% | 90% | 90% | 90% | 90% | 90% | 90% | 90% | –
